Test results published in patent US20090098096A1, “AGENT FOR CORRECTING STRESS-INDUCING NEURO-MEDIATOR, NEURO-ENDOCRINE AND METABOLIC DISTURBANCES AND METHOD FOR PREVENTING AND TREATING CONCOMITANT PATHOLOGICAL CONDITIONS” (priority 2005, published 2009).
Where no end group is shown, it is not given here.

Experiments:
[1] = tested on: plasma membranes of human blood cells (erythrocytes and thrombocytes) and synaptosomal membranes (mice brain); conditions: on the surface and internal non-polar region; cited from earlier work
[2] = tested on: antioxidant systems of the liver, the brain and the blood; conditions: under normal and under stress conditions; cited from earlier work
[3] = tested on: mitochondrial respiratory chain; experiment: mitochondrial respiratory chain and oxidative phosphorylation on rat brain preparations; assay type: biochemical
Text: DSIP and its related peptides play a unique role in the maintenance of the structural-metabolic homeostasis not only on the level of different organs and tissues but also on the sub-cellular level of the organism. […] Such a decrease of rigidity of biological membranes enables the normalization of membrane functions, that have been disturbed by manifestations of the metabolic syndrome, such as hypertonic disease, hyperinsulinemia, misbalance of the endocrinal system, aging, etc.

[4] = tested on: lipids of various biological membranes (synaptosome, mitochondrial, erythrocyte and other); experiment: peroxidation of lipids of biological membranes; assay type: biochemical; conditions: by modulation of the activity of antioxidant enzymes
Text: The direct effect of the peptide on different cell membrane types was shown which may provide an additional normalizing cell functions effect. Particularly FDSIP may provide a stabilizing effect to the mitochondrial cell apparatus that also is capable of reducing cell damage by normalizing the cell respiration processes, which has been shown by us in experiments.

[5] = tested on: GABAA-receptor complex; experiment: pharmacological profiling on convulsive and comatose models; design: species or system mice; conditions: mouse, in vivo
Text: Particularly, the evaluation of the GABA-effecting component in the mechanism of action of the peptidic composition “Deltaran” based on FDSIP has been performed using the “pharmacological profiling” method in animals (mice). […] Also evidence has been found for a modulation of the barbiturate binding site of the GABA-benzodiazepine-ionophore-receptor complex by Deltaran and DSIP and data have been obtained concerning regulatory effect on chloride ionophore. The regulatory influences are probably realized via the peptide fragment of the GABA-benzodiazepine-ionophore-receptor complex (15).

Sequence: WAGGDASGE [DSIP, endogenous nonapeptide, delta-sleep inducing peptide]
- mobility of structural membrane domains [1]: increased mobility
- capacity of the antioxidant systems of the liver, the brain and the blood [2]: credibly increases
- efficacy of the oxidative phosphorylation [3]: significant increase
- action on the peroxidation of lipids of various biological membranes [4]: inhibitory and preventive action
- barbiturate binding site of the GABA-benzodiazepine-ionophore-receptor complex [5]: modulation
